PubChem BioAssay AID179 (DTP/NCI, 2004)
Values joined by “and” are separate entries in the source; they are usually repeats but may differ in a detail not shown here. Identical values can stand only once. Active and inactive are the calls of the source.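 The calls were made as follows: active = compounds giving half or more protection of infected cells from virus-caused growth loss, again on retest; inactive = the rest.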 *1 amine or outer side, *2 acyl side, *3 side chain or, on linkers, in order; H or OH if unused. Where a SMILES comes first, the peptide text is derived from it. Bridges are numbered along the chain shown (N, C = ends). [ ]: non-standard residue; d: D form. The star is where a group is joined. X12 = O=C(C1CCCNN1[*:1])[*:2]; For = O=C*

Tested on: CEM cells HIV-1 protection, formazan growth assay
Assay: NCI AIDS Antiviral Assay
Conditions: for IC50: measured here: growth of uninfected CEM cells
Summary of the method: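 CEM (human) cells, HIV-1 infected vs uninfected, 5-point dosing, formazan growth read-out. Retest threshold 50% protection.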

Row | SMILES | EC50 | IC50 | outcome
1 | O=[C]=[Fe+].O=[C]=[Fe].[C-]1=CCC=C1.[CH-]=O.[CH-]=O.c1cc[cH-]c1 | > 200 µM | 21.4 µM | –
2 | O=c1ssc(=Nc2ccccc2)n1-c1ccccc1 | > 200 µM | 67.6 µM and 56.2 µM | –
3 | N#CCCC1(CCC#N)CCc2ccccc2C1=O | > 200 µM | > 200 µM | –
4 | CCOP(=O)(OCC)C(Nc1ccc(Br)cc1)c1cccc([N+](=O)[O-])c1 (stereo not drawn) | – | – | inactive
5 | O=C(O)COc1ccc(S(=O)(=O)c2ccc(OCC(=O)O)c([N+](=O)[O-])c2)cc1[N+](=O)[O-] | > 200 µM | > 200 µM | –
6 | COc1ccc(N=C(C)c2ccncc2)cc1 | > 200 µM | 10.5 µM | –
7 | Cc1c2ccccc2nc(CCl)[n+]1[O-] | > 200 µM | 3.24 µM | –
8 | O=c1nc2ccc3sc4ccccc4c(=O)c3n2c(=O)[nH]1 | > 200 µM | 110 µM | –
9 | CC(C)(C)[C@H]1CO[C@]2(C)[C@@H]3C[C@@H]3C(=O)N12 | – | – | inactive
10 | Cc1ccc(NC(=O)CC/C(CC(=O)c2ccc(Cl)cc2)=N\NC(=O)C(=O)NN)cc1C | > 8.32 µM | > 8.32 µM | –
11 | CN(C)CCNS(=O)(=O)c1ccc(N)cc1 | > 200 µM | > 200 µM | –
12 | CCCCOC(=O)C1CC2OC2CC1C(=O)OCCCCOC(=O)C1CC2OC2CC1C(=O)OCCCC (stereo not drawn) | > 200 µM | 21.9 µM | –
13 | CCCCCCCC/C=C\CCCCCCC(F)C(=O)O (stereo not drawn) | 33.1 µM | > 200 µM | –
14 | Cc1cc(N=Nc2c(O)c3ccccc3[nH]c2=O)ccc1N=Nc1ccc(C(=O)N(C)C)cc1 | > 200 µM | 151 µM | –
15 | COc1cc(/C=C2\CCOC2=O)ccc1OCc1ccccc1 | > 32.4 µM | > 32.4 µM | –
16 | O=C(CC(=O)N1N=C(n2ccc3ccccc32)CC1c1ccccc1)Nc1ccccc1Cl (stereo not drawn) | > 8.32 µM | > 8.32 µM | –
17 | CCC(C)C(NC=O)C(=O)NC1C(=O)NC(CC(C)C)C(=O)NC(C(C)C)C(=O)N2NCCCC2C(=O)NC(CC(C)C)C(=O)N2NCCCC2C(=O)OC1C (stereo not drawn) (For-ITLV[X12]L[X12]; ester 2-C; configuration not given here) | > 45.7 µM | 25.1 µM | –
18 | COc1cc2nncc(SCc3ccccc3)c2cc1OC | > 85.1 µM | > 85.1 µM | –
19 | Cc1cccc(C)c1NC(=O)CN(CC(C)C)CC(O)COc1ccccc1 (stereo not drawn) | > 200 µM | 27.5 µM | –
20 | C/C(=N/NC(=O)C(N)=O)C(CC(C(=O)Nc1ccccc1C)/C(C)=N\NC(=O)C(N)=O)C(=O)Nc1ccccc1C (stereo not drawn) | > 158 µM | 79.4 µM | –
21 | CCOC(=O)C(NC(=O)CC)(Nc1ccc(S(=O)(=O)Nc2onc(C)c2C)cc1)C(F)(F)F (stereo not drawn) | > 200 µM | > 200 µM | –

Row | SMILES | EC50 | IC50 | outcome
22 | O=c1c2ccccc2nc(-c2ccccc2)n1NC(=S)Nc1cccc(Cl)c1 | > 33.1 µM | > 33.1 µM | –
23 | CCOC(=O)c1ccc(NC(=O)O/N=C(/Cl)C(C)C)cc1 | > 200 µM | 10.5 µM | –
24 | Cc1ccc(S(=O)(=O)N2C[C@H](O)C[C@H]2C(=O)O)cc1 | – | – | inactive
25 | CCOC(=O)C1CCCc2sc(N)c(C#N)c21 (stereo not drawn) | > 200 µM | > 200 µM | –
26 | CC1=C(/C=C/C(C)=C/C=C/C(C)=C/C=O)C(C)(C)CCC1 | – | – | inactive
27 | O=C1NC(=S)N(c2ccccc2)C1=O | > 200 µM | > 200 µM | –
28 | [Pt].c1ccc([PH+](c2ccccc2)c2ccccc2)cc1.c1ccc([PH+](c2ccccc2)c2ccccc2)cc1.c1ccc([PH+](c2ccccc2)c2ccccc2)cc1.c1ccc([PH+](c2ccccc2)c2ccccc2)cc1 | > 11 µM | > 11 µM | –
29 | Nc1nc(Cl)c(CO)c(NCC2(CO)CCC2)n1 | > 200 µM | 191 µM | –
30 | Cc1cn(C2OC(C)(CO)C(O)C2O)c(=O)[nH]c1=O (stereo not drawn) | > 912 µM | > 912 µM | –
31 | O=C(/C=C/c1cc(Cl)cc(Cl)c1O)c1cccc(O)c1 | – | – | inactive
32 | CC(=O)NNC(=S)/N=C\c1c(O)c2ccccc2oc1=O | – | – | inactive
33 | CCC1(CC(=O)N(C)C)CCCN(C(=O)Oc2ccccc2)C1 (stereo not drawn) | > 31.6 µM | > 31.6 µM | –
34 | NCc1ccc(S(N)(=O)=O)cc1 | > 200 µM | > 200 µM | –
35 | CCCCCCCCCCNC(C)=O | > 200 µM | 85.1 µM | –
36 | O=P(O)(O)Cc1c(Cl)c(Cl)c(CP(=O)(O)O)c(Cl)c1Cl | > 200 µM | > 200 µM | –
37 | CC(=O)OC1CC2Oc3ccc(C)cc3C(C)(O2)C1=O (stereo not drawn) | – | – | inactive
38 | Cc1ccc(C2OC(COCc3ccc(Cl)cc3)C(OCc3ccc(Cl)cc3)C2O)cc1 (stereo not drawn) | – | – | inactive
39 | Nc1c(N2CCOCC2)c(=O)nc2[nH]/c(=C\c3ccccc3O)c(=O)n12 | > 200 µM | 97.7 µM | –
40 | CC(C)CCSSCCC(C)C | > 200 µM | > 200 µM | –
41 | CCOC(=O)C1=C(Nc2ccc(Br)cc2)OC/C1=N\NC(=O)c1ccccc1O | > 38.9 µM | 3.98 µM | –
42 | O=C(NNC(=O)c1cccc(C(=O)NNC(=O)c2ccc(Cl)c(Cl)c2)n1)c1ccc(Cl)c(Cl)c1 | > 200 µM | 1.07 µM | –

Row | SMILES | EC50 | IC50 | outcome
43 | O=C1c2ccccc2-c2c1c1ccccc1c(=O)n2CCO | > 34.7 µM | 1.95 µM | –
44 | COc1nc(N)c(NC2OCC(O)C(O)C2O)c(=O)n1C (stereo not drawn) | 195 µM and 182 µM and > 200 µM | 603 µM and 224 µM and > 200 µM | –
45 | CCOC1(O)C(=O)c2ccccc2OC1(OCC)c1ccccc1 (stereo not drawn) | > 200 µM | 26.9 µM | –
46 | COc1cc(/C=C/c2ccnc3ccccc23)ccc1N(C)C | > 200 µM | 2.19 µM | –
47 | CC(C)CCC[C@@H](C)[C@H]1CC[C@H]2[C@@H]3CC=C4CC(OCCCCN(O)CCCSC5OC(CO)C(O)C(O)C5O)CC[C@]4(C)[C@H]3CC[C@]12C (stereo partly drawn) | > 200 µM | 35.5 µM | –
48 | Cc1ccnc(NC(=S)Nc2cccc(Cl)c2)c1 | 57.5 µM | > 200 µM | –
49 | Cc1cccc(C(C)O)n1 (stereo not drawn) | > 200 µM | > 200 µM | –
50 | Cc1cc2c(=O)c3ccc(Cl)cc3[nH]c2c(C(N)=O)c1C | – | – | inactive
51 | N/N=C(\c1ccccc1)c1ccc([N+](=O)[O-])cc1 | > 135 µM | 97.7 µM | –
52 | CCOC(=O)C1Cc2cc(C)c(C)cc2N(C)C1=O (stereo not drawn) | > 200 µM | > 200 µM | –
53 | O=C1c2ccccc2C(=O)N1n1c(Cc2ccc(Cl)cc2)n[nH]c1=O | > 200 µM | > 200 µM | –
54 | Cc1cn2c(=O)c3ncn(C4OC(CO)C(O)C4O)c3n(C)c2n1 (stereo not drawn) | – | – | inactive
55 | C=CC1C(C[C@@H]2c3cc(O)c(O)cc3CCN2C(C)=O)C(C(=O)OC)=CO[C@H]1OC1OC(CO)C(O)C(O)C1O (stereo partly drawn) | – | – | inactive
56 | COc1ccc(/C=c2\[nH]c3nc(=O)c(N4CCCCC4)c(N)n3c2=O)cc1 | > 200 µM | 120 µM | –
57 | CC(=O)N/N=C1\CC(C)(C)C2CCC1C2 (stereo not drawn) | – | – | inactive
58 | COc1ccc(/C=C2\CN(C)C/C(=C\c3ccc(OC)c(OC)c3OC)C2=O)c(OC)c1OC | > 2 µM | 0.331 µM | –
59 | COc1ccc(/C=N/Nc2nc3ccccc3c(=O)n2-c2ccccc2)cc1 | > 200 µM | > 200 µM | –
60 | CC12C=C[C@]3(CC[C@@H]4[C@@](C)(CO)CCC[C@]4(C)C3CC1)C2 (stereo partly drawn) | – | – | inactive
61 | Clc1ccc(CSc2ccc3nncc(SCc4ccc(Cl)cc4)c3c2)cc1 | > 60.3 µM | > 60.3 µM | –
62 | N#CC(c1ccccc1)(c1ccccc1)[C@@H](c1ccccc1)[C@H](Cc1ccccc1)NS(=O)(=O)c1ccccc1 | > 200 µM | > 200 µM | –
63 | CC(C)C1=CC23CCC4C(C)(C(=O)O)CCCC4(C)C2CC1C1C(=O)N(c2ccc(C(=O)O)cc2)C(=O)C13 (stereo not drawn) | > 45.7 µM | > 45.7 µM | –
